# What was measured:
# [1] = tested on: patients with relapsed and/or relapsed-refractory multiple myeloma; test: Safety of various dosages of melflufen, TEAEs (Example 1); format: in vivo, human
# Experimental: Example 1: 4 dose levels (15, 25, 40 and 55 mg) of intravenous melflufen hydrochloride (excluding the mass of the salt component) in 290 to 370 ml glucose solution administered over 30 minutes on Day 1 of a 21-day cycle (in combination with dexamethasone treatment on Days 1, 8 and 15), for at least 1 cycle and up to 12 cycles, were evaluated.
# Treatment emergent adverse events (TEAEs) of any grade were recorded in 29 patients that took part in Example 1 (4 patients at 15 mg dosage of melflufen over 30 minutes; 7 patients at 25 mg dosage of melflufen over 30 minutes; 12 patients at 40 mg dosage of melflufen over 30 minutes; and 6 patients at 55 mg dosage of melflufen over 30 minutes).
# clinical = conditions: human, in vivo, iv; for AUC(0-t): AUC0-4; for AUC(0-inf): AUCinf
# [2] = 55 mg melflufen hydrochloride, 6 patients
# [3] = Example 1, all dose levels, 29 patients
smiles,measurement,setting,value
"CCOC(=O)[C@H](Cc1ccc(F)cc1)NC(=O)[C@@H](N)Cc1ccc(N(CCCl)CCCl)cc1.Cl [melflufen, L-Melphalanyl-4-fluoro-L-phenylalanine ethyl ester]","Any treatment-related Grade 3 and 4 TEAE, n patients",[1]; 15 mg over 30 min (n = 4),2
same,"Any treatment-related Grade 3 and 4 TEAE, total number of events",[1]; 15 mg over 30 min (n = 4),(4)
same,"Grade 3 and 4 febrile neutropenia, n patients",[1]; 15 mg over 30 min (n = 4),1
same,"Grade 3 and 4 febrile neutropenia, total number of events",[1]; 15 mg over 30 min (n = 4),(1)
same,"Grade 3 and 4 neutropenia, n patients",[1]; 15 mg over 30 min (n = 4),0
same,"Grade 3 and 4 neutropenia, total number of events",[1]; 15 mg over 30 min (n = 4),(0)
same,"Grade 3 and 4 thrombocytopenia, n patients",[1]; 15 mg over 30 min (n = 4),1
same,"Grade 3 and 4 thrombocytopenia, total number of events",[1]; 15 mg over 30 min (n = 4),(1)
same,"Any treatment-related Grade 3 and 4 TEAE, n patients",[1]; 25 mg over 30 min (n = 7),5
same,"Any treatment-related Grade 3 and 4 TEAE, total number of events",[1]; 25 mg over 30 min (n = 7),(13)
same,"Grade 3 and 4 febrile neutropenia, n patients",[1]; 25 mg over 30 min (n = 7),0
same,"Grade 3 and 4 febrile neutropenia, total number of events",[1]; 25 mg over 30 min (n = 7),(0)
same,"Grade 3 and 4 neutropenia, n patients",[1]; 25 mg over 30 min (n = 7),2
same,"Grade 3 and 4 neutropenia, total number of events",[1]; 25 mg over 30 min (n = 7),(6)
same,"Grade 3 and 4 thrombocytopenia, n patients",[1]; 25 mg over 30 min (n = 7),2
same,"Grade 3 and 4 thrombocytopenia, total number of events",[1]; 25 mg over 30 min (n = 7),(3)
same,"Any treatment-related Grade 3 and 4 TEAE, n patients",[1]; 40 mg over 30 min (n = 12),7
same,"Any treatment-related Grade 3 and 4 TEAE, total number of events",[1]; 40 mg over 30 min (n = 12),(23)
same,"Grade 3 and 4 febrile neutropenia, n patients",[1]; 40 mg over 30 min (n = 12),1
same,"Grade 3 and 4 febrile neutropenia, total number of events",[1]; 40 mg over 30 min (n = 12),(2)
same,"Grade 3 and 4 neutropenia, n patients",[1]; 40 mg over 30 min (n = 12),4
same,"Grade 3 and 4 neutropenia, total number of events",[1]; 40 mg over 30 min (n = 12),(8)
same,"Grade 3 and 4 thrombocytopenia, n patients",[1]; 40 mg over 30 min (n = 12),4
same,"Grade 3 and 4 thrombocytopenia, total number of events",[1]; 40 mg over 30 min (n = 12),(9)
same,"Anemia, treatment related ≥grade 3",[1]; [2],(33) %
same,"Any treatment-related grade 3 and/or grade 4, ≥grade 3",[1]; [2],(100) %
same,"Blood and lymphatic system disorders, treatment related ≥grade 3",[1]; [2],(100) %
same,"Cutaneous rash, treatment related ≥grade 3",[1]; [2],(17) %
same,"Fatigue, treatment related ≥grade 3",[1]; [2],(17) %
same,"General disorders and administration site conditions, treatment related ≥grade 3",[1]; [2],(17) %
same,"Infections and infestations, treatment related ≥grade 3",[1]; [2],(50) %
same,"Neutropenia, treatment related ≥grade 3",[1]; [2],(100) %
same,"Pancytopenia, treatment related ≥grade 3",[1]; [2],(17) %
same,"Pneumonia, treatment related ≥grade 3",[1]; [2],(33) %
same,"Sepsis, treatment related ≥grade 3",[1]; [2],(17) %
same,"Skin and subcutaneous disorders, treatment related ≥grade 3",[1]; [2],(17) %
same,"Thrombocytopenia, treatment related ≥grade 3",[1]; [2],(83) %
same,"Urinary tract infection, treatment related ≥grade 3",[1]; [2],(17) %
same,"Any treatment-related Grade 3 and 4 TEAE, n patients",[1]; 55 mg over 30 min (n = 6),6
same,"Any treatment-related Grade 3 and 4 TEAE, total number of events",[1]; 55 mg over 30 min (n = 6),(58)
same,"Grade 3 and 4 febrile neutropenia, n patients",[1]; 55 mg over 30 min (n = 6),1
same,"Grade 3 and 4 febrile neutropenia, total number of events",[1]; 55 mg over 30 min (n = 6),(1)
same,"Grade 3 and 4 neutropenia, n patients",[1]; 55 mg over 30 min (n = 6),5
same,"Grade 3 and 4 neutropenia, total number of events",[1]; 55 mg over 30 min (n = 6),(17)
same,"Grade 3 and 4 thrombocytopenia, n patients",[1]; 55 mg over 30 min (n = 6),5
same,"Grade 3 and 4 thrombocytopenia, total number of events",[1]; 55 mg over 30 min (n = 6),(28)
same,"related Grade 3 or 4 neutropenia at least once, patients","[1]; Example 1, all dose levels",38%
same,"related Grade 3 or 4 thrombocytopenia at least once, patients","[1]; Example 1, all dose levels",41%
same,total number of TEAEs reported,"[1]; Example 1, all dose levels 15-55 mg, 29 patients",157
same,"Grade 3 or 4 TEAEs, regardless of relationship, patients",[1]; [3],76%
same,"anemia, all grades, regardless of relationship",[1]; [3],59%
same,"anemia, all grades, regardless of relationship, n patients",[1]; [3],17
same,"nausea, all grades, regardless of relationship",[1]; [3],38%
same,"nausea, all grades, regardless of relationship, n patients",[1]; [3],11
same,"neutropenia, all grades, regardless of relationship",[1]; [3],41%
same,"neutropenia, all grades, regardless of relationship, n patients",[1]; [3],12
same,"thrombocytopenia, all grades, regardless of relationship",[1]; [3],69%
same,"thrombocytopenia, all grades, regardless of relationship, n patients",[1]; [3],20
same,"Grade 3 or 4 TEAEs, regardless of relationship, n patients","[1]; Example 1, all dose levels, of 29 patients",22
same,AUC(0-t),clinical; 15 mg,13.5 ng·h/mL
same,AUC(0-inf),clinical; 15 mg,16.3 ng·h/mL
same,Cmax,clinical; 15 mg,39 ng/mL
same,half-life,"clinical; 15 mg, T1/2",13 min
same,tmax,clinical; 15 mg,15 min
same,AUC(0-t),clinical; 25 mg,40.8 ng·h/mL
same,AUC(0-inf),clinical; 25 mg,40.8 ng·h/mL
same,Cmax,clinical; 25 mg,102 ng/mL
same,half-life,"clinical; 25 mg, T1/2",4.6 min
same,tmax,clinical; 25 mg,12 min
same,AUC(0-t),clinical; 40 mg,89.3 ng·h/mL
same,AUC(0-inf),clinical; 40 mg,89.3 ng·h/mL
same,Cmax,clinical; 40 mg,222 ng/mL
same,half-life,"clinical; 40 mg, T1/2",1.1 min
same,tmax,clinical; 40 mg,15 min
same,AUC(0-t),clinical; 55 mg,102 ng·h/mL
same,AUC(0-inf),clinical; 55 mg,102 ng·h/mL
same,Cmax,clinical; 55 mg,245 ng/mL
same,half-life,"clinical; 55 mg, T1/2",2.7 min
same,tmax,clinical; 55 mg,25 min
same,half-life,clinical; half-life of melflufen concentrations after end of infusion,3 to 5 min

# — patent US20220047507A1, “MELFLUFEN DOSAGE REGIMENS FOR CANCER” (ONCOPEPTIDES AB, priority 2015, published 2022)
